# According to ChEMBL document CHEMBL2151026, “Comparative study on antioxidant capacity of flavonoids and their inhibitory effects on oleic acid-induced hepatic steatosis in vitro” (Eur J Med Chem, 2011):
# Active and inactive are the calls of the source. The calls are words filed in the database; no cut-off is given here.
# Experiments:
# [1] = tested on: HepG2; assay: Inhibition of oleic acid-induced triglyceride over-accumulation in human HepG2 cells incubated for 24 hrs relative to untreated control; assay type: functional; settings: for IC30: Homo sapiens, HepG2, 24 h
# [2] = tested on: HepG2; assay: Antioxidant activity in human HepG2 cells assessed as reduction of oleic acid-induced ROS generation incubated for 24 hrs by DHCF-DA based fluorimetric assay relative to untreated control; assay type: functional; settings: for IC30: Homo sapiens, HepG2, 24 h
# [3] = tested on: HepG2; assay: Cytotoxicity against human HepG2 cells incubated for 24 hrs by MTT assay; assay type: cell-based; settings: hepg2, 24 h
# [4] = Reducing activity assessed as chlorogenic acid equivalent per mmol standard at 37 degC for 30 mins by Folin-Ciocalteu reagent assay
# [5] = Reducing activity by cyclic voltammetry
# [6] = tested on: HepG2; assay: Proxidant activity in human HepG2 cells assessed as increase in oleic acid-induced ROS generation at >10 uM incubated for 24 hrs by […] based fluorimetric assay relative to untreated control; assay type: cell-based; settings: hepg2, 24 h
# [7] = tested on: HepG2; assay: Proxidant activity in human HepG2 cells assessed as increase in oleic acid-induced ROS generation at >25 uM incubated for 24 hrs by […] based fluorimetric assay relative to untreated control; assay type: cell-based; settings: hepg2, 24 h
smiles,measurement,setting,value
C[C@@H]1O[C@@H](OC[C@H]2O[C@@H](Oc3c(-c4ccc(O)c(O)c4)oc4cc(O)cc(O)c4c3=O)[C@H](O)[C@@H](O)[C@@H]2O)[C@H](O)[C@H](O)[C@H]1O [RUTIN],Imax,[1],28.2%
same,IC30,[1],> 200 µM
same,Imax,[2],25.2%
same,inhibition,[2],Dose-dependent effect
same,IC30,[2],> 250 µM
same,Activity,[3],> 250 µM
same,Activity,[4],1.35 mM
same,Activity,[5],0.306 V
O=C1C[C@@H](c2ccc(O)cc2)Oc2cc(O)cc(O)c21 [NARINGENIN],Imax,[1],inactive
same,Imax,[2],inactive
same,Activity,[3],> 200 µM
same,Activity,[4],0.55 mM
same,Activity,[5],0.71 V
O=c1c(O)c(-c2ccc(O)c(O)c2)oc2cc(O)cc(O)c12 [QUERCETIN],Imax,[1],46.1%
same,IC30,[1],14.9 µM
same,Imax,[2],43.6%
same,inhibition,[2],Dose-dependent effect
same,IC30,[2],30.8 µM
same,Activity,[3],> 75 µM
same,Activity,[4],1.24 mM
same,Activity,[5],0.218 V
O=c1c(O)c(-c2cc(O)c(O)c(O)c2)oc2cc(O)cc(O)c12 [MYRICETIN],Imax,[1],24.8%
same,IC30,[1],> 150 µM
same,Imax,[2],34.5%
same,inhibition,[2],Dose-dependent effect
same,IC30,[2],123 µM
same,Activity,[3],> 200 µM
same,Activity,[4],1.02 mM
same,Activity,[5],0.115 V
O=c1c(-c2ccc(O)cc2)coc2cc(O)ccc12 [DAIDZEIN],Imax,[1],34.5%
same,IC30,[1],140 µM
same,Imax,[2],37.5%
same,inhibition,[2],Dose-dependent effect
same,IC30,[2],135 µM
same,Activity,[3],> 200 µM
same,Activity,[4],0.4 mM
same,Activity,[5],0.596 V
COc1cc(-c2oc3cc(O)cc(O)c3c(=O)c2O)ccc1O [ISORHAMNETIN],Imax,[1],41.8%
same,IC30,[1],90.5 µM
same,Imax,[2],43.8%
same,inhibition,[2],Dose-dependent effect
same,IC30,[2],69.3 µM
same,Activity,[3],> 200 µM
same,Activity,[4],1.04 mM
same,Activity,[5],0.115 V
Oc1cc(O)c2c(c1)O[C@H](c1ccc(O)c(O)c1)[C@H](O)C2 [(-)-EPICATECHIN],Imax,[1],46.6%
same,IC30,[1],166 µM
same,Imax,[2],38.1%
same,IC30,[2],103 µM
same,Activity,[3],> 250 µM
same,Activity,[4],1.05 mM
O=c1c(O)c(-c2ccccc2)oc2cc(O)cc(O)c12 [GALANGIN],Imax,[1],inactive
same,Imax,[2],12.4%
same,IC30,[2],> 50 µM
same,Activity,[3],> 50 µM
same,Activity,[4],0.75 mM
same,Activity,[5],0.354 V
O=C(O[C@@H]1Cc2c(O)cc(O)cc2O[C@@H]1c1cc(O)c(O)c(O)c1)c1cc(O)c(O)c(O)c1 [EPIGALOCATECHIN GALLATE],Imax,[1],54.2%
same,IC30,[1],6.3 µM
same,Imax,[2],40.2%
same,inhibition,[2],Dose-dependent effect
same,IC30,[2],26.2 µM
same,Activity,[3],> 200 µM
same,Activity,[4],2.2 mM
same,Activity,[5],0.125 V
O=C1c2c(O)cc(O)cc2O[C@H](c2ccc(O)c(O)c2)[C@H]1O [(+)-TAXIFOLIN],Imax,[1],43.4%
same,IC30,[1],63.6 µM
same,Imax,[2],40.1%
same,IC30,[2],40 µM
same,Activity,[3],> 200 µM
same,Activity,[4],0.99 mM
same,Activity,[5],0.248 V
O=c1c(O)c(-c2ccc(O)cc2)oc2cc(O)cc(O)c12 [KAEMPFEROL],Imax,[1],58.6%
same,IC30,[1],121 µM
same,Imax,[2],42.2%
same,inhibition,[2],Dose-dependent effect
same,IC30,[2],68.7 µM
same,Activity,[3],> 200 µM
same,Activity,[4],1.08 mM
same,Activity,[5],0.189 V
O=c1cc(-c2ccccc2)oc2cc(O)cc(O)c12 [CHRYSIN],Imax,[1],inactive
same,Imax,[2],inactive
same,Activity,[3],> 20 µM
same,Activity,[4],0.16 mM
same,Activity,[5],0.81 V
Oc1cc(O)c2c(c1)O[C@H](c1ccc(O)c(O)c1)[C@@H](O)C2 [CIANIDANOL],Imax,[1],28.7%
same,IC30,[1],> 250 µM
same,Imax,[2],29.8%
same,IC30,[2],> 250 µM
same,Activity,[3],> 250 µM
same,Activity,[4],0.77 mM
same,Activity,[5],0.285 V
COc1ccc([C@@H]2CC(=O)c3c(O)cc(O)cc3O2)cc1O [HESPERETIN],Imax,[1],inactive
same,Imax,[2],23%
same,IC30,[2],> 150 µM
same,Activity,[3],> 100 µM
same,Activity,[4],0.53 mM
same,Activity,[5],0.556 V
O=c1c(-c2ccc(O)cc2)coc2cc(O)cc(O)c12 [GENISTEIN],Imax,[1],inactive
same,Imax,[2],17.3%
same,IC30,[2],> 50 µM
same,Activity,[3],> 50 µM
same,Activity,[4],0.33 mM
same,Activity,[5],0.614 V
O=c1cc(-c2ccc(O)c(O)c2)oc2cc(O)cc(O)c12 [LUTEOLIN],Imax,[1],24.2%
same,IC30,[1],> 20 µM
same,Imax,[2],24%
same,IC30,[2],> 20 µM
same,Activity,[3],> 20 µM
same,Activity,[4],0.91 mM
same,Activity,[5],0.269 V
O=c1cc(-c2ccc(O)cc2)oc2cc(O)cc(O)c12 [APIGENIN],Imax,[1],inactive
same,Imax,[2],inactive
same,Activity,[3],> 150 µM
same,Activity,[6],Toxic
same,Activity,[7],Toxic
same,Activity,[4],0.39 mM
same,Activity,[5],0.623 V
